Data on 24 compounds can be found in patent US7998951B2, “HCV NS5B inhibitors” (Bristol-Myers Squibb Company, priority 2007, dated 2011).

The structures appear in SMILES notation. pEC50, pIC50: −log10 of the molar value.

Test [1] has as its target T1, HCV NS5B RdRp genotype 1b (Hepatitis C virus genotype 1b, UniProt Q9WMX2).
T1 construct: The protein was expressed with an 18 amino acid C-terminal truncation to enhance the solubility; made in house; host or cells: E. coli BL21 (DE3)
Nature of the test: HCV NS5B RdRp enzyme assay (preincubation protocol). The test is classed as biochemical. The method, then:
HCV NS5B RdRp cloning, expression, and purification. The cDNA encoding the NS5B protein of HCV, genotype 1b, was cloned into the pET21a expression vector. The protein was expressed with an 18 amino acid C-terminal truncation to enhance the solubility. The E. coli competent cell line BL21 (DE3) was used for expression of the protein. Cultures were grown at 37° C. for ˜4 hours until the cultures reached an optical density of 2.0 at 600 nm. The cultures were cooled to 20° C. and induced with 1 mM IPTG. Fresh ampicillin was added to a final concentration of 50 μg/ml and the cells were grown overnight at 20° C.
Cell pellets (3 L) were lysed for purification to yield 15-24 mgs of purified NS5B. The lysis buffer consisted of 20 mM Tris-HCl, pH 7.4, 500 mM NaCl, 0.5% triton X-100, 1 mM DTT, 1 mM EDTA, 20% glycerol, 0.5 mg/ml lysozyme, 10 mM MgCl2, 15 ug/ml deoxyribonuclease I, and Complete TM protease inhibitor tablets (Roche). After addition of the lysis buffer, frozen cell pellets were resuspended using a tissue homogenizer. To reduce the viscosity of the sample, aliquots of the lysate were sonicated on ice using a microtip attached to a Branson sonicator. The sonicated lysate was centrifuged at 100,000×g for 1 hr at 4° C. and filtered through a 0.2 μm filter unit (Corning).
The protein was purified using three sequential chromatography steps: Heparin sepharose CL-6B, polyU sepharose 4B, and Hitrap SP sepharose (Pharmacia). The chromatography buffers were identical to the lysis buffer but contained no lysozyme, deoxyribonuclease I, MgCl2 or protease inhibitor and the NaCl concentration of the buffer was adjusted according to the requirements for charging the protein onto the column. Each column was eluted with a NaCl gradient which varied in length from 5-50 column volumes depending on the column type. After the final chromatography step, the resulting purity of the enzyme is >90% based on SDS-PAGE analysis. The enzyme was aliquoted and stored at −80° C.
Standard HCV NS5B RdRp enzyme assay. HCV RdRp genotype 1b assays were run in a final volume of 60 μl in 96 well plates (Costar 3912). The assay buffer is composed of 20 mM Hepes, pH 7.5, 2.5 mM KCl, 2.5 mM MgCl2, 1 mM DTT, 1.6 U RNAse inhibitor (Promega N2515), 0.1 mg/ml BSA (Promega R3961), and 2% glycerol. All compounds were serially diluted (3-fold) in DMSO and diluted further in water such that the final concentration of DMSO in the assay was 2%. HCV RdRp genotype 1b enzyme was used at a final concentration of 28 nM. A polyA template was used at 6 nM, and a biotinylated oligo-dT12 primer was used at 180 nM final concentration. Template was obtained commercially (Amersham 27-4110). Biotinylated primer was prepared by Sigma Genosys. 3H-UTP was used at 0.6 μCi (0.29 μM total UTP). Reactions were initiated by the addition of enzyme, incubated at 30° C. for 60 min, and stopped by adding 25 μl of 50 mM EDTA containing SPA beads (4 μg/μl, Amersham RPNQ 0007). Plates were read on a Packard Top Count NXT after >1 hr incubation at room temperature.
Modified HCV NS5B RdRp enzyme assay. A modified enzyme assay was performed essentially as described for the standard enzyme assay except for the following: The biotinylated oligo dT12 primer was precaptured on streptavidin-coated SPA beads by mixing primer and beads in assay buffer and incubating at room temperature for one hour. Unbound primer was removed after centrifugation. The primer-bound beads were resuspended in 20 mM Hepes buffer, pH 7.5 and used in the assay at final concentrations of 20 nM primer and 0.67 μg/μl beads. Order of addition in the assay: enzyme (14 nM) was added to diluted compound followed by the addition of a mixture of template (0.2 nM), 3H-UTP (0.6 μCi, 0.29 μM), and primer-bound beads, to initiate the reaction; concentrations given are final. Reactions were allowed to proceed for 4 hours at 30° C.
IC50 values for compounds were determined using seven different [I]. […]

Another test relates to HCV replicon cells. Description: HCV replicon FRET assay. Conditions: Hepatitis C virus. The test is classed as cell-based. The source says: FRET Assay Preparation. To perform the HCV FRET screening assay, 96-well cell culture plates were used. The FRET peptide (Anaspec, Inc.) (Taliani et al., Anal. Biochem. 1996, 240, 60-67) contains a fluorescence donor, EDANS, near one end of the peptide and an acceptor, DABCYL, near the other end. The fluorescence of the peptide is quenched by […] resonance energy transfer (RET) between the donor and the acceptor, but as the NS3 protease cleaves the peptide the products are released from RET quenching and the fluorescence of the donor becomes apparent. The assay reagent was made as follows: 5× cell Luciferase cell culture lysis reagent from Promega (#E153A) diluted to 1× with dH2O, NaCl added to 150 mM final, the FRET peptide diluted to 20 uM final from a 2 mM stock.
To prepare plates, HCV replicon cells, with or without a Renilla luciferase reporter gene, were trypsinized and placed into each well of a 96-well plate with titrated test compounds added in columns 3 through 12; columns 1 and 2 contained a control compound (HCV protease inhibitor), and the bottom row contained cells without compound. The plates were then placed in a CO2 incubator at 37° C.
Assays. Subsequent to addition of the test compounds described above (FRET Assay Preparation), at various times the plate was removed and Alamar blue solution (Trek Diagnostics, #00-100) was added per well as a measure of cellular toxicity. After reading in a Cytoflour 4000 instrument (PE Biosystems), plates were rinsed with PBS and then used for FRET assay by the addition of 30 ul of the FRET peptide assay reagent described above (FRET Assay Preparation) per well. The plate was then placed into the Cytoflour 4000 instrument which had been set to 340 excite/490 emission, automatic mode for 20 cycles and the plate read in a kinetic mode. Typically, the signal to noise using an endpoint analysis after the reads was at least three-fold. Alternatively, after Alamar blue reading, plates were rinsed with PBS, 50 ul of DMEM (high glucose) without phenol red was added and plates were then used for luciferase assay using the Promega Dual-Glo Luciferase Assay System.
Compound analysis was determined by quantification of the relative HCV replicon inhibition and the relative cytotoxicity values. To calculate cytoxicity values, the average Alamar Blue fluorescence signals from the control wells were set as 100% non-toxic. The individual signals in each of the compound test wells were then divided by the average control signal and multiplied by 100% to determine […]. To calculate the HCV replicon inhibition values, an average background value was obtained from the two wells containing the highest amount of HCV protease inhibitor at the end of the assay period. These numbers were similar to those obtained from naïve Huh-7 cells.
The background numbers were then subtracted from the average signal obtained from the control wells and this number was used as 100% activity. The individual signals in each of the compound test wells were then divided by the averaged control values after background subtraction and multiplied by 100% to determine percent activity. EC50 values for a protease inhibitor titration were calculated as the concentration which caused a 50% reduction in FRET or luciferase activity. The two numbers generated for the compound plate, percent cytotoxicity and percent activity were used to determine compounds of interest for further analysis.
A general note: In antiviral work, replicon cells carry a viral genome segment that copies itself.

T1 sequence (Q9WMX2 2420-2992): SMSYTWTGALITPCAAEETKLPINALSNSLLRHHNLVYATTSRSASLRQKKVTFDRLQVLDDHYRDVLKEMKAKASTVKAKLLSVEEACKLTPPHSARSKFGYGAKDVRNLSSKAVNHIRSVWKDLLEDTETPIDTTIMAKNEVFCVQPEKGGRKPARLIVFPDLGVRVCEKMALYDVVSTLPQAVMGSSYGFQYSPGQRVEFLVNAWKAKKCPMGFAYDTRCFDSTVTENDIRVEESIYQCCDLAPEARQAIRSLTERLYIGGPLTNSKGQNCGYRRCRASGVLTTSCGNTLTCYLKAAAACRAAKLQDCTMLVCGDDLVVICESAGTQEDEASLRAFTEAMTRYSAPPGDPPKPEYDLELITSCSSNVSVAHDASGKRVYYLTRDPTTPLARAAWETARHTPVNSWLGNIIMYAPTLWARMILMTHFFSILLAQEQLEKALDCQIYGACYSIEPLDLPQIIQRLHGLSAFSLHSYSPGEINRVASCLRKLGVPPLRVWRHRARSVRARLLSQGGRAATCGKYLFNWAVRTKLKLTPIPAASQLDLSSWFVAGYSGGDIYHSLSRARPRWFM

Usually pIC50 stands for the IC50 on a negative log10 scale, so that one unit is a factor of ten. Read a high pIC50 as a small IC50. In general, pEC50 refers to −log10 of the EC50, conventionally taken in molar units. Low values mean a large EC50, high ones a small EC50. On to `CN(C)S(=O)(=O)NC(=O)c1ccc2c(C3CCCCC3)c(-c3ccccc3)n3c2c1OCC3`, for which, in test [1], the pIC50 was 5.00 to 6.00. Moreover, the pEC50 in the test with HCV replicon cells was 5.00 to 6.00.
For `O=C(O)/C=C/c1ccc(NC(=O)C2(NC(=O)c3ccc4c(C5CCCCC5)c(-c5ccccc5)n5c4c3CCC5C(=O)N3CCOCC3)CCCC2)cc1` (stereo not drawn), the pIC50 in test [1] was 6.00 to 7.52. In the test on HCV replicon cells, the pEC50 was 5.00 to 6.00.
The matching figures for `COC(=O)c1ccc2c(C3CCCCC3)c(-c3ccccc3)n3c2c1CCC3C(=O)N1CCOCC1` (stereo not drawn): less than 6.00 and less than 6.92.
The matching figures for `COc1ccc(-c2c(C3CCCCC3)c3ccc(C(=O)O)c4c3n2CCO4)cc1`: 6.00 to 7.52 and 5.00 to 6.00.
The matching figures for `O=C(O)/C=C/c1ccc(NC(=O)C2(NC(=O)c3ccc4c(C5CCCCC5)c(-c5ccccc5)n5c4c3OCC5)CCCC2)cc1`: 6.00 to 7.52 and 6.00 to 7.52.
The compound `COC(=O)c1ccc2c(C3CCCCC3)c(-c3ccccc3)n3c2c1CCC3C(=O)O` (stereo not drawn) had a pIC50 in test [1] of less than 6.00. The compound also had a pEC50 in the test on HCV replicon cells of less than 6.92.
The matching figures for `COC(=O)c1ccc2c(C3CCCCC3)c(-c3ccccc3)n3c2c1OCC3`: 5.00 to 6.00 and less than 6.92.
`COC(=O)c1ccc2c(C3CCCCC3)c(-c3ccccc3)n3c2c1C=CCC3`: the pIC50 in test [1] was less than 5.00. Besides, the pEC50 with HCV replicon cells is less than 6.92.
The matching figures for `O=C(O)c1ccc2c(C3CCCCC3)c(-c3ccccc3)n3c2c1OCC3`: 6.00 to 7.52 and 5.00 to 6.00.
The compound `O=C(O)c1ccc2c(C3CCCCC3)c(-c3ccccc3)n3c2c1CCCC3` gave a pIC50 in test [1] of less than 6.00. The pEC50 in the test on HCV replicon cells was less than 6.00.
Take `C[C@@H]1CN(C(=O)C2CCc3c(C(=O)O)ccc4c(C5CCCCC5)c(-c5ccccc5)n2c34)C[C@H](C)O1` (stereo partly drawn): the pIC50 in test [1] was less than 6.00. The pEC50 with HCV replicon cells is 5.00 to 6.00.
The matching figures for `O=C(O)c1ccc2c(C3CCCCC3)c(-c3ccccc3)n3c2c1CCC3C(=O)O` (stereo not drawn): less than 6.00 and less than 5.00.
Compound `CCOC(=O)/C=C/c1ccc(NC(=O)C2(NC(=O)c3ccc4c(C5CCCCC5)c(-c5ccccc5)n5c4c3OCC5)CCCC2)cc1` gave a pIC50 in test [1] of 6.00 to 7.52. Besides, the pEC50 with HCV replicon cells was less than 6.00.
Compound `O=C(O)c1ccc2c(C3CCCCC3)c(-c3ccccc3)n3c2c1C=CCC3` showed a pIC50 in test [1] of less than 6.00. In the test with HCV replicon cells, this compound gave a pEC50 of less than 6.00.
In turn, `CN(C)S(=O)(=O)NC(=O)c1ccc2c(C3CCCCC3)c(-c3ccccc3)n3c2c1CCC3C(=O)N1CCOCC1` (stereo not drawn) had a pIC50 in test [1] of 5.00 to 6.00. The pEC50 in the test on HCV replicon cells is 5.00 to 6.00.
With `CCOC(=O)/C=C/c1ccc(NC(=O)C2(NC(=O)c3ccc4c(C5CCCCC5)c(-c5ccccc5)n5c4c3CCC5C(=O)N3CCOCC3)CCCC2)cc1` (stereo not drawn), in test [1], the pIC50 was 5.00 to 6.00. In the test on HCV replicon cells, the pEC50 was 6.00 to 7.52.
The like results for `COC(=O)c1ccc2c(C3CCCCC3)c(-c3ccccc3)n3c2c1CCC3C(=O)OC` (stereo not drawn) were, in that order, less than 5.00 and less than 6.00.
In test [1], `O=C(NS(=O)(=O)C1CC1)c1ccc2c(C3CCCCC3)c(-c3ccccc3)n3c2c1CCC3C(=O)N1CCOCC1` (stereo not drawn) gave a negative-log IC50 (pIC50) of 5.00 to 6.00. In addition, in the test on HCV replicon cells, the pEC50 is less than 5.00.
Compound `O=C(O)/C=C\c1ccc(NC(=O)C2(NC(=O)c3ccc4c(C5CCCCC5)c(-c5ccccc5)n5c4c3OCC5)CCCC2)cc1` showed a pIC50 in test [1] of 6.00 to 7.52. In the test with HCV replicon cells, this compound showed a pEC50 of 6.00 to 7.52.
In turn, `COc1ccc(-c2c(C3CCCCC3)c3ccc(C(=O)NC4(C(=O)Nc5ccc(C=CC(=O)O)cc5)CCCC4)c4c3n2CCO4)cc1` showed a pIC50 in test [1] of 6.00 to 7.52. This compound also had a pEC50 in the test with HCV replicon cells of 6.00 to 7.52.
`O=C(O)c1ccc2c(C3CCCCC3)c(-c3ccccc3)n3c2c1CCC3C(=O)N1CCOCC1` (stereo not drawn) gave a pIC50 in test [1] of 6.00 to 7.52. In addition, the pEC50 with HCV replicon cells is 6.00 to 7.52.
For `COC(=O)c1ccc2c(C3CCCCC3)c(-c3ccccc3)n3c2c1CCC3`, the pIC50 in test [1] was less than 5.00. Further, the pEC50 in the test on HCV replicon cells was less than 6.92.
For `CCOC(=O)/C=C/c1ccc(NC(=O)C2(NC(=O)c3ccc4c(C5CCCCC5)c(-c5ccc(OC)cc5)n5c4c3OCC5)CCCC2)cc1`, the pIC50 in test [1] is 6.00 to 7.52. This compound also gave a pEC50 with HCV replicon cells of less than 6.00.
The matching figures for `COC(=O)c1ccc2c(C3CCCCC3)c(-c3ccccc3)n3c2c1OC(C(=O)OC)C3` (stereo not drawn): less than 6.00 and less than 6.00.
